{
  "source": "patent US11241441B2",
  "about": "“Formulations of lixivaptan for the treatment of polycystic disease” (PALLADIO BIOSCIENCES, INC., priority 2017, dated 2022)",
  "key": {"Measured Log P": {"assay": "Measured Log P", "assay_type": "physicochemical"}, "[1]": {"conditions": "90/30 mg split daily dosing; cited from earlier work"}, "[2]": {"conditions": "Shoaf, 2013; cited from earlier work"}},
  "data": [
    {"smiles": "Cc1ccccc1C(=O)Nc1ccc(C(=O)N2CCCC(O)c3cc(Cl)ccc32)c(C)c1", "note": "(stereo not drawn) [tolvaptan]", "values": [
      {"measurement": "logP", "setting": "Measured Log P", "value": "> 3"},
      {"measurement": "individuals with ALT elevations (reported by Woodhead)", "setting": "[1]", "value": "approximately 8%"},
      {"measurement": "exposure in subjects with impaired renal function compared to healthy individuals", "setting": "[2]", "value": "increased exposure"}
    ]}
  ]
}
